US10034879B2, “Substituted benzaldehyde compounds and methods for their use in increasing tissue oxygenation” (Global Blood Therapeutics, Inc., priority 2011, dated 2018)

What was measured:
[1] = target: T1, purified HBS (Homo sapiens, UniProt P68871+P69905, E7V); assay: HbS polymerization assay (delay time); type: biochemical; details: 50 μM purified HBS, 1.8 M potassium phosphate pH 7.4
T1 construct: HbS is purified by the CRO VIRUSYS, from blood obtained from homozygous sickle cell patients; tissue VIRUSYS (CRO that did the purification); host or cells: blood of homozygous sickle cell patients
Protocol: Polymerization assays are carried out in vitro using purified HBS exchanged into 1.8 M potassium phosphate buffer at pH 7.4. Using a slightly modified protocol (Antonini and Brunori, 1971), HbS is purified by the CRO VIRUSYS, from blood obtained from homozygous sickle cell patients through the Hemoglobinopathy Center at Children's Hospital Oakland Research Institute (CHORI) with Institutional Review Board approval. Compounds are prepared in 100% DMSO and a desired amount is added to 50 μM of purified HBS at a final DMSO concentration of 0.3%. Final potassium phosphate concentration is adjusted to 1.8 M using a combination of 2.5 M potassium phosphate stock solution and water at pH 7.4. The reaction mixture is incubated for an hour at 37° C. and then transferred into a 24-well plate for deoxygenation in a glove box containing 99.5% nitrogen and 0.5% oxygen. The 24-well plate is not covered and incubated at 4° C. on a plate cooler inside the glove box for one and a half hours. Fifty μL of the reaction mixture is transferred into a 96-well plate and the absorbance at 700 nm is measured every minute for one hour at 37° C. in a plate reader located inside the glove box. A plot of the absorbance against time is fitted using a Boltzman sigmoidal fit and the delay time (from zero to time at half Vmax) is measured. To compare and rank compounds, delay times are expressed as percent delay (% DT), which is defined as the difference in delay times for HBS/compound and HBS alone multiplied by 100 and divided by the delay time for HBS alone.
Compounds listed below have been tested in the polymerization assay. Activity ranges are defined by the number of dagger (†) symbols indicated. † denotes activity ≤40% but ≤80%; †† denotes activity >80% but ≤120%; ††† denotes activity >120% but ≤140%; †††† denotes activity >160%.

[2] = target: T2, HbS/A (Homo sapiens, UniProt P68871+P69905, E7V); assay: Relaxed-to-tense transition assay (R/T assay); type: biochemical; details: 3 μM HbS/A
T2 construct: A mixture of HbS/A was purified from blood; from tissue; host or cells: blood of homozygous sickle cell patients
Protocol: A relaxed-to-tense transition assay (“R/T assay”) was used to determine the ability of substituted benzaldehyde compounds to maintain the high-oxygen affinity relaxed (R) state of hemoglobin under deoxygenated conditions. This ability can be expressed as a “delta R” value (i.e., the change in the time-period of the R state after hemoglobin is treated with a compound, as compared to the period without treatment with the compound). Delta R is the % R to remaining after the compounds treatment compared with no treatment (e.g. if R % without treatment is 8% while with treatment with a target compound is 48% R at 30 μM, then % R is 40% for that compound.
A mixture of HbS/A was purified from blood obtained from homozygous sickle cell patients though the Hemoglobinopathy Center at Children's Hospital Oakland Research Institute (CHORI) with Institutional Review Board approval. HbS/A (at a final concentration of 3 μM) was incubated for 1 hr at 37° C. in presence or absence of compounds in […] potassium phosphate buffer, pH=7.4 and 30 μM 2, 3 diphosphoglycerate (DPG) in 96 well plates in a final volume of 160 μl. Compounds were added at different concentrations (3 μM to 100 μM final concentrations). Plates were covered with a Mylar film. After incubation was completed the Mylar cover was removed and the plates were placed in a Spectrostar Nano plate reader previously heated at 37° C. Five minutes later, N2 (flow rate=20 L/min) was flowed through the spectrophotometer. Spectroscopic measurements (300 nm to 700 nm) were taken every 5 min for 2 hours. Data analysis was performed by using linear regression from the data retrieved for all wavelengths.
Table 4 below lists the delta R values where + indicates a delta R of between 0 and 30, ++ indicates a delta R of between 30 and 50, and +++ indicates a delta R of 50 or greater. Unless noted otherwise, the compounds in Table 2 were tested at 9 μM.

[3] = target: T3, HbS (Homo sapiens, UniProt P68871+P69905, E7V); assay: Whole blood assay, oxygen equilibrium curves of whole blood from sickle cell patients; type: cell-based; details: hematocrit 20%, compound at 1000 μM
T3 construct: Oxygen Equilibrium Curves (OEC) of whole blood before and after treatment; endogenous in cells; host or cells: whole blood (red blood cells) of homozygous sickle cell patients
Protocol: Oxygen Equilibrium Curves (OEC) of whole blood before and after treatment with different concentrations of substituted benzaldehyde compounds were performed as follows using a HEMOX analyzer (TCS Scientific, New Hope, Pa.). Blood samples from homozygous sickle cell patients were obtained though the Hemoglobinopathy Center at Children's Hospital Oakland Research Institute (CHORI) with Institutional Review Board approval. The hematocrit was adjusted to 20% using autologous plasma and the blood samples were incubated for 1 hour at 37° C. in absence or presence of compounds. 100 μl of these samples were added to 5 mL of Hemox buffer (30 mM TES, 130 mM NaCl, 5 mM KCl, pH=7.4) at 37° C. and then transferred to the Hemox sample chamber. The samples were saturated with oxygen by flushing with compressed air for 10 minutes. The samples were then flushed with pure nitrogen and the respective absorbances of oxy- and deoxy-Hb are recorded as a function of the solution pO2. The oxygen equilibrium data were then fitted to the Hill Model to obtain values for p50. The deoxygenation curves for both whole blood alone (control) and whole blood in the presence of the compound were collected with the TCS software.
Table 5 below lists the delta p50% values where + indicates a delta p50% of between 0 and 29, ++ indicates a delta p50% of between 30 and 50, and +++ indicates a delta p50% of 50 or greater. The compounds in Table 2 were tested at 1000 μM.

[4] = system: Transgenic mice producing human HbS; details: extreme hypoxia (5% oxygen), vs non-treated mice; cited from earlier work

| Compound | % delta Delay [1] | delta R (%) ([2]; compound at 9 μM) | delta p50% [3] | amounts of hypoxia-induced sickled red blood cells [4] | survival times [4] | delta R (%) ([2]; compound at 30 μm) |
| --- | --- | --- | --- | --- | --- | --- |
| O=Cc1ccc(CO)o1 [Compound 5HMF, 5-hydroxymethyl-2-furfuraldehyde] |  |  |  | reduced | significantly improved |  |
| O=Cc1c(O)cccc1OCc1cccc(-c2nn[nH]n2)c1 [Compound 44, 2-((3-(2H-tetrazol-5-yl)benzyl)oxy)-6-hydroxybenzaldehyde] |  | +++ (+++ indicates a delta R of 50 or greater) | + (+ indicates a delta p50% of between 0 and 29) |  |  |  |

Further lines, with some results ahead:

| % delta Delay [1] | Compound | delta R (%) ([2]; compound at 9 μM) | delta p50% [3] | amounts of hypoxia-induced sickled red blood cells [4] | survival times [4] | delta R (%) ([2]; compound at 30 μm) |
| --- | --- | --- | --- | --- | --- | --- |
| †† (†† denotes activity >80% but ≤120%) | O=Cc1c(O)cccc1OCc1ccc(-c2nn[nH]n2)cc1 [Compound 45, 2-((4-(2H-tetrazol-5-yl)benzyl)oxy)-6-hydroxybenzaldehyde] | +++ (+++ indicates a delta R of 50 or greater) | + (+ indicates a delta p50% of between 0 and 29) |  |  |  |
| †† (†† denotes activity >80% but ≤120%) | O=Cc1ccccc1OCc1ccc(C(=O)O)cc1 [Compound 47, 4-((2-formylphenoxy)methyl)benzoic acid] |  |  |  |  |  |
| †† (†† denotes activity >80% but ≤120%) | O=Cc1c(O)cccc1OCc1ccc(C(=O)O)cc1 [Compound 42, 4-((2-formyl-3-hydroxyphenoxy)methyl)benzoic acid] |  | + (+ indicates a delta p50% of between 0 and 29) |  |  | +++ (30 μm) (+++ indicates a delta R of 50 or greater) |
